Consider 43 compounds from patent US20250084092A1, “ANNULATED PYRIDAZINE COMPOUND” (Nico Therapeutics, Inc., priority 2021, published 2025).

The test deals with T1, NLRP3 inflammasome (Homo sapiens, UniProt Q96P20).
T1 construct: endogenous in cells; host or cells: THP-1 cells (PMA-differentiated, stimulated with LPS and ATP)
The test is described as follows: THP-1 IL-1β production inhibition test. The settings on record: PMA-treated THP-1 cells, LPS 50 ng/mL + ATP 5 mM, 2 hours, IL-1β in supernatant by ELISA. Format: cell-based. As for the experimental part: PMA (phorbol myristate acetate, SIGMA, P1585) was added to THP-1 cells in an amount of 50 ng/mL to culture the cells for 2 days at 37° C. […] LPS (Lipopolysaccharide, SIMGA, L2880) and ATP (Adenosine triphosphate, SIGMA, A2383) were added so that final concentrations become 50 ng/mL and 5 mM, respectively, followed by culturing at 37° C. for 2 hours. The supernatants were collected to measure the concentrations of IL-1β by ELISA (DuoSet ELISA human IL-1β, R&D Systems, DY201). The IL-1β concentrations were plotted against log concentrations of test compounds, and an IC50 value was calculated by sigmoid Emax model nonlinear regression analysis.

Counter-ions that a name gives are not always drawn.

The term IC50 denotes the midpoint of a concentration-inhibition curve.

T1 sequence (Q96P20 whole entry): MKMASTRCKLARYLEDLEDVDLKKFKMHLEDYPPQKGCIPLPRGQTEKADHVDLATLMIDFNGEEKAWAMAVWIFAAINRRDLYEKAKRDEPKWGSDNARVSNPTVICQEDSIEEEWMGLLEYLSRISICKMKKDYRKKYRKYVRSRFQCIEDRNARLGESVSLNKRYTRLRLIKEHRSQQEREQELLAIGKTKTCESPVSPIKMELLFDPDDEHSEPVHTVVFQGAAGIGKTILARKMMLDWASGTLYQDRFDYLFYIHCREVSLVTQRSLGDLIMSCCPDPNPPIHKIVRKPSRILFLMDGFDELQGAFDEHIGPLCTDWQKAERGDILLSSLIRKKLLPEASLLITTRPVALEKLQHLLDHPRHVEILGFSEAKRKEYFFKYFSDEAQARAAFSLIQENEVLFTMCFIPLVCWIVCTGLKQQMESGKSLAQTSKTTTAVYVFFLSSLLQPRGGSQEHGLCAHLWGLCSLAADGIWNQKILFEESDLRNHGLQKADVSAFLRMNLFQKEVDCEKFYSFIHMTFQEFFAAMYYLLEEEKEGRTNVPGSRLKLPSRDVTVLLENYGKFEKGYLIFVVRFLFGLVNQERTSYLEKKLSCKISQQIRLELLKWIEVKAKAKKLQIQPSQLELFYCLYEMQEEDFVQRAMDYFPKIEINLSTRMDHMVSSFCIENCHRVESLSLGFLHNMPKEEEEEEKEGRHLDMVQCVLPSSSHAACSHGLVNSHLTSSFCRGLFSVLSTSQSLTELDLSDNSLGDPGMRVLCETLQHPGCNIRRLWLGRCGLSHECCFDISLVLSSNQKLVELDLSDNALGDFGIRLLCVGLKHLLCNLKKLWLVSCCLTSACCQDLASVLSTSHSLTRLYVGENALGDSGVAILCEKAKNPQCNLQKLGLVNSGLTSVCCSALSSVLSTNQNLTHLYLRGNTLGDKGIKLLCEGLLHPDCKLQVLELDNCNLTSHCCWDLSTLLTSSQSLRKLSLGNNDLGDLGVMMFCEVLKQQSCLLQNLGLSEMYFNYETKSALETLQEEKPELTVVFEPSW

Consider `C[C@@H](O)CNc1nnc(-c2ccc(C(F)(F)F)cc2C(F)(F)F)c2c1CCC2` [Example 8], for which the IC50 was found to be 210 nM. Regarding `Oc1cc(C(F)(F)F)ccc1-c1nnc(N[C@@H]2CCCC[C@H]2O)c2c1CSCC2` [Example 102], the 50% inhibitory concentration (IC50) stood at 5.1 nM.

Take `CN1CCC[C@@H](Nc2nnc(-c3ccc(C4CC4)cc3O)c3c2COCC3)C1` [Example 112, 5-cyclopropyl-2-(4-{[(3R)-1-methylpiperidin-3-yl]amino}-7,8-dihydro-5H-pyrano[3,4-d]pyridazin-1-yl)phenol]: the IC50 was found to be 1.3 nM. On to `CN1CCC[C@@H](Nc2nnc(-c3ccc(C(F)(F)F)cc3O)c3c2CSC3(C)C)C1` [Example 123], for which the IC50 amounted to 47 nM.

In the case of `[O-][S+]1Cc2c(N[C@@H]3CCCC[C@H]3O)nnc(-c3ccc(C(F)(F)F)cc3O)c2C1` (stereo partly shown) [131(2)], the IC50 was found to be 79 nM. Turning to `CN1CCc2c(N[C@@H]3CCCC[C@H]3O)nnc(-c3ccc(C(F)(F)F)cc3O)c2C1` [Example 75], the IC50 turned out to be 54 nM. Next, `C[C@@H](O)CNc1nnc(-c2ccc(C(F)(F)F)cc2C(F)(F)F)c2c1CN(S(C)(=O)=O)CC2` [Example 80, (2R)-1-({1-[2,4-bis(trifluoromethyl)phenyl]-6-(methanesulfonyl)-5,6,7,8-tetrahydropyrido[3,4-d]pyridazin-4-yl}amino)propan-2-ol]: 5200 nM; `Cc1ccc(-c2nnc(N[C@@H]3CCCC[C@H]3O)c3c2CCN(C)C3)c(O)c1` [Example 77]: 33 nM; `O=S1(=O)CCc2c(N[C@@H]3CCCC[C@H]3O)nnc(-c3ccc(C(F)(F)F)cc3O)c2C1` [Example 130]: 22 nM. With `COc1ccc(-c2nnc(N[C@@H]3CCCC[C@H]3O)c3c2CCCC3)c(O)c1` [Example 28], the IC50 amounted to 14 nM. Next, `O=C1NCC[C@@H]1Nc1nnc(-c2ccc(C(F)(F)F)cc2O)c2c1CCCC2` [Example 50]: 8.2 nM; `C[C@]1(O)C[C@@H](Nc2nnc(-c3ccc(C(F)(F)F)cc3O)c3c2CCC3)C1` [Example 59]: 40 nM; `COc1ccc(-c2nnc(N[C@@H]3CCCC[C@@]3(C)O)c3c2CCCC3)c(O)c1` [Example 58]: 88 nM. As for `Oc1cc(C(F)(F)F)c(F)cc1-c1nnc(N[C@@H]2CCCC[C@H]2O)c2c1CCOC2` [Example 86], the IC50 was determined as 11 nM.

On to `Oc1cc(C(F)(F)F)ccc1-c1nnc(N[C@@H]2CCCC[C@H]2O)c2c1CCCCC2` [Example 34], for which the IC50 came to 3.9 nM. Take `OCC1(CNc2nnc(-c3ccc(C(F)(F)F)cc3O)c3ccccc23)CC1` [Example 13]: the IC50 was determined as 15 nM. Next, `CN1CCC[C@@H](Nc2nnc(-c3ccc(C(F)(F)F)cc3O)c3c2CSC3)C1` [Example 121]: 8.5 nM; `Oc1cc(C(F)(F)F)ccc1-c1nnc(N[C@@H]2CCCC[C@H]2O)c2c1CCSC2` [Example 103]: 4.4 nM; `Oc1cc(C(F)(F)F)ccc1-c1nnc(N[C@@H]2CCCC[C@H]2O)c2c1CNCC2` [Example 91]: 560 nM. On to `CC(=O)N1CCc2c(-c3ccc(C(F)(F)F)cc3O)nnc(N[C@@H]3CCCC[C@H]3O)c2C1` [Example 92, 1-[4-{[(1R,2R)-2-hydroxycyclohexyl]amino}-1-[2-hydroxy-4-(trifluoromethyl)phenyl]-7,8-dihydropyrido[3,4-d]pyridazin-6(5H)-yl]ethan-1-one], for which the IC50 was found to be 47 nM. Next, `Oc1cc(OC(F)(F)F)ccc1-c1nnc(N[C@@H]2CCOC[C@H]2O)c2c1CCCCC2` [Example 45]: 14 nM; `C[C@]1(O)C[C@@H](Nc2nnc(-c3ccc(Cl)cc3O)c3c2CCCC3)C1` [Example 30]: 22 nM; `Oc1cc(C(F)(F)F)ccc1-c1nnc(N[C@@H]2CCCC[C@H]2O)c2c1OCCC2` [Example 42]: 37 nM. Take `C[C@]1(O)C[C@@H](Nc2nnc(-c3ccc(C(F)(F)F)cc3O)c3c2CCCC3)C1` [Example 29]: the IC50 amounted to 18 nM. Consider `CC(=O)N1CCC[C@@H](Nc2nnc(-c3ccc(C(F)(F)F)cc3O)c3c2CSC3)C1` [Example 119], for which the IC50 is 6 nM.

As for `CC(=O)NCCCCNc1nnc(-c2ccc(C(F)(F)F)cc2O)c2c1COCC2` [Example 118], the IC50 was 4.8 nM. For `Oc1cc(C(F)F)ccc1-c1nnc(N[C@@H]2CCCC[C@H]2O)c2c1CCCC2` [Example 84], the half-maximal inhibitory concentration (IC50) turned out to be 18 nM. Regarding `Oc1cc(C(F)(F)F)ccc1-c1nnc(N[C@@H]2CCCC[C@@H]2O)c2c1COCC2` [4(2), 2-(1-{[(1R,2S)-2-hydroxycyclohexyl]amino}-7,8-dihydro-5H-pyrano[3,4-d]pyridazin-4-yl)-5-(trifluoromethyl)phenol], the IC50 turned out to be 15 nM. As for `COc1ccc(-c2nnc(NCCCO)c3c2CCCC3)cc1` [Example 7], the IC50 stood at 8500 nM. Turning to `CC(=O)N1Cc2c(N[C@@H]3CCCC[C@H]3O)nnc(-c3ccc(C(F)(F)F)cc3O)c2C1` [Example 117, 1-(1-{[(1R,2R)-2-hydroxycyclohexyl]amino}-4-[2-hydroxy-4-(trifluoromethyl)phenyl]-5,7-dihydro-6H-pyrrolo[3,4-d]pyridazin-6-yl)ethan-1-one], the IC50 was 130 nM.

For the compound `Cc1cc(O)c(-c2nnc(N[C@@H]3CCCC[C@H]3O)c3c2CCOC3)c(F)c1` [62(1)], the IC50 turned out to be 6.1 nM.

Turning to `Oc1cc(OC(F)(F)F)ccc1-c1nnc(N[C@@H]2CCCC[C@H]2O)c2c1CCCCC2` [Example 43], the IC50 was found to be 8.7 nM. Consider `C[C@]1(O)C[C@@H](Nc2nnc(-c3ccc(C(F)(F)F)cc3O)c3c2CCCCC3)C1` [Example 48], for which the IC50 was determined as 36 nM. As for `CC(=O)NCCCCOc1nnc(-c2ccc(C(F)(F)F)cc2O)c2ccccc12` [Example 81, N-[4-({4-[2-hydroxy-4-(trifluoromethyl)phenyl]phthalazin-1-yl}oxy)butyl]acetamide], the figure is 33 nM; as for `Oc1cc(C(F)(F)F)ccc1-c1nnc(N[C@H]2CCCC[C@@H]2O)c2c1CCOC2` [66(2)], 180 nM. Turning to `Oc1cc(C(F)(F)F)ccc1-c1nnc(N[C@@H]2CCCC[C@H]2O)c2c1CCCO2` [Example 41], the IC50 came out at 40 nM.

With `Oc1cc(OC(F)(F)F)ccc1-c1nnc(N[C@@H]2CCCC[C@H]2O)c2c1COCC2` [3(2), 2-(1-{[(1R,2R)-2-hydroxycyclohexyl]amino}-7,8-dihydro-5H-pyrano[3,4-d]pyridazin-4-yl)-5-(trifluoromethoxy)phenol], the IC50 is 7 nM. Next, `Oc1cc(C2CC2)ccc1-c1nnc(N[C@@H]2CCCC[C@H]2O)c2c1COCC2` [52(2)]: 27 nM; `Oc1cc(C(F)(F)F)ccc1-c1nnc(N[C@@H]2CCOC[C@H]2O)c2c1CCCCC2` [Example 44]: 6.8 nM. Regarding `Oc1cc(C(F)(F)F)ccc1-c1nnc(N[C@@H]2CCCC[C@H]2O)c2c1CCNC2` [Example 90, 2-(4-{[(1R,2R)-2-hydroxycyclohexyl]amino}-5,6,7,8-tetrahydropyrido[3,4-d]pyridazin-1-yl)-5-(trifluoromethyl)phenol dihydrochloride], the IC50 amounted to 12 nM. As for `Oc1cc(C(F)(F)F)ccc1-c1nnc(N[C@@H]2CCOC[C@H]2O)c2c1CCCC2` [Example 35], the IC50 amounted to 16 nM.

For `COc1ccc(-c2nnc(N[C@@H]3CCCN(C)C3)c3c2CCOC3)c(O)c1` [Example 110], the IC50 worked out at 1.4 nM.

As to `C[C@]1(O)C[C@@H](Nc2nnc(-c3ccc(C(F)(F)F)cc3O)c3c2CCOC3)C1` [56(2)], the IC50 stood at 36 nM.
